Values of other authors as cited in patent publication US20250009771A1, “PHARMACEUTICAL COMPOSITION FOR TREATING COLORECTAL CANCER, INCLUDING TUMOR-TARGETED LIPOSOMES CONTAINING PLATYCODIN D2” (INDUSTRY-UNIVERSITY COOPERATION FOUNDATION HANYANG …, priority 2023, published 2025).

What was measured:
BCL-XL = target: T1, BCL-XL (Homo sapiens, UniProt Q07817); details: cited from earlier work
T1 construct: host or cells: adenomas and tumor organoids (endogenous protein)

[1] = slightly acidic pH; cited from earlier work

T1 sequence (Q07817 whole entry, species assumed): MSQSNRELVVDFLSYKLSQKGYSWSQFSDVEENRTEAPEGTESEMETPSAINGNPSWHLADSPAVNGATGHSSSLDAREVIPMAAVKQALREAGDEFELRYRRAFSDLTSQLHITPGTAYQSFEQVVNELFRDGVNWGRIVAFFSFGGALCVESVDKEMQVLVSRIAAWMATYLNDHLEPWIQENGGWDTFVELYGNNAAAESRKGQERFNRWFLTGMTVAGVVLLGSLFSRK

Row | Compound | clonogenic potential of adenomas and tumor organoids (BCL-XL) | pK of insertion into the cell membrane [1]
1 | CN(C)CC#Cc1ccc(OCCCc2sc(N3CCc4cccc(C(=O)Nc5nc6ccccc6s5)c4C3)nc2C(=O)O)c(F)c1 [A-1155463] | significantly impaired | 
2 | GLAGLAGLLGLEGLLGLPLGLLEGLWLGLELEGN [ATRAM, pH-responsive acidity-triggered rational membrane peptide] |  | 6.5
